The record followed here is EP4768484A1, “HETEROCYCLIC FUSED RING COMPOUND, AND COMPOSITION AND USE THEREOF” (Shenzhen TargetRx, Inc., priority 2023, dated 2025).

Holding throughout (assay type): cell-based
One experiment has as its system K562 cells. As to the kind of experiment: Cell growth inhibitory activity assay (CellTiter-Glo), K562 cells. The following applies: Homo sapiens, 72 h, CTG cell viability. On the procedure:
(§1) In this assay, the Celltiter-Glo (CTG) kit provided by Promega was used, and it is a homogeneous cell viability assay method. The cell viability of cultured cells was measured by quantifying ATP. K562 cells were purchased from Nanjing Kebai, product number CBP60529; Ba/F3 parental cells were purchased from RIKEN BRC, product number RCB0805; other cells containing BCR-ABL1 WT, BCR-ABL1 T315I, BCR-ABL1 T315M, BCR-ABL1 Y253H/E255K, BCR-ABL1 E255V/T3151, BCR-ABL1 A424T, BCR-ABL1 A337V, BCR-ABL1 P465S, BCR-ABL1 V468F, and BCR-ABL1 I502L were all monoclonal engineered cell lines obtained by transducting Ba/F3 parental cells with the lentivirus plasmids containing WT or corresponding mutated BCR-ABL1.
(§2) The steps of cell viability assay are as follows: • a) Cells in logarithmic growth phase were collected. Cell suspension was prepared and the cells were counted. Concentration of the cells was calculated. • b) The cell suspension was diluted to the required concentration and then added to the middle wells of a 96-well plate, and PBS was added to the edge wells. The wells with no cells and only culture medium were used as blank controls. • c) In addition to the cell plate used for compound analysis, another 96-well plate was prepared as a T0 plate, and 3-6 blank wells and 3-6 cell wells were added. The next day, CTG was used to test the cell viability as the T0 viability value of the cells. • d) The cell plate was incubated at 37 °C in a 5% CO2 incubator overnight. • e) The next day, each concentration of a compound subjected to a gradient dilution was added, and the cell plate was incubated at 37 °C in a 5% CO2 incubator for 72 h. The wells with no compound and only 0.5% DMSO were used as positive controls for cell growth. • f) CTG reagent (CellTiter-Glo kit) was added according to the manufacturer's instructions to test the cell viability value. • g) The plate was read using Biotek cytation3.0 microplate reader and the data were exported. • h) IC50 was calculated using GraphPad Prism 7.0 software.
(§3) The IC50 (half-maximal inhibitory concentration) of the compound was obtained using the following nonlinear fitting formula: Y = Bottom + (Top−Bottom)/(1+10^(∧)((LogIC50−X)*HillSlope)) [formula] • X: Log value of the compound concentration • Y: Inhibition rate (% inhibition) • Top: Maximum response • Bottom: Baseline response • HillSlope: Slope of the curve
(§4) The formula for calculating cell inhibition rate (inhibition rate %) was: [formula]
For orientation: Cellular ATP, detected with luciferase, serves as a proxy for viable cell number.

A further experiment deals with Ba/F3 parental cells. As to the kind of experiment: Cell growth inhibitory activity assay (CellTiter-Glo), Ba/F3 parental cells. The following applies: Mus musculus, BaF3, 72 h, CTG cell viability, read-out: IC50 Ba/F3 BCR-ABL1 Parental. On the procedure:
as §1, §2, §3, §4

For a further experiment, the target named is T1, Ba/F3 BCR-ABL1 WT (Homo sapiens, UniProt P00519+P11274).
T1 construct: BCR (N-terminal fusion partner of the oncoprotein); expressed in transfected cells; host or cells: Ba/F3 (lentiviral transduction, monoclonal line)
As to the kind of experiment: Cell growth inhibitory activity assay (CellTiter-Glo), Ba/F3 BCR-ABL1 WT cells. The settings on record: 72 h, CTG cell viability. Here is the method: as §1, §2, §3, §4

The target of the next experiment is T2, Ba/F3 BCR-ABL1 T315I (Homo sapiens, UniProt P00519+P11274, T315I).
T2 construct: BCR (N-terminal fusion partner of the oncoprotein); expressed in transfected cells; host or cells: Ba/F3 (lentiviral transduction, monoclonal line)
As to the kind of experiment: Cell growth inhibitory activity assay (CellTiter-Glo), Ba/F3 BCR-ABL1 T315I cells. The settings on record: 72 h, CTG cell viability. On the procedure: as §1, §2, §3, §4

In the case of `O=C(Nc1ccc(OC(F)(F)Cl)cc1)c1cnc(N2CC[C@@H](F)C2)c(-c2cnc3c(c2)-c2nn(-c4nccc(N5CCOCC5)n4)cc2C3)c1` [T-34, (R)-N-(4-(chlorodifluoromethoxy)phenyl)-6-(3-fluoropyrrolidin-1-yl)-5-(2-(4-morpholinopyrimidin-2-yl)-2,4-dihydropyrazolo[3',4':3,4]cyclopenta[1,2-b]pyridin-7-yl)nicotinamide], the IC50 in the experiment on K562 cells is no more than 5 nM; with Ba/F3 parental cells it was greater than 1000 nM; against Ba/F3 BCR-ABL1 WT, no more than 5 nM; against Ba/F3 BCR-ABL1 T315I, no more than 5 nM.
Turning to `C[C@@H]1CN(C)Cc2nc3cc(C(=O)Nc4ccc(OC(F)(F)Cl)cc4)cc(-c4cnc5c(c4)C(=O)N(C4CC4)C5)c3n21` [T-36, (R)-N-(4-(chlorodifluoromethoxy)phenyl)-6-(6-cyclopropyl-5-oxo-6,7-dihydro-5H-pyrrolo[3,4-b]pyridin-3-yl)-2,4-dimethyl-1,2,3,4-tetrahydrobenzo[4,5]imidazo[1,2-a]pyrazine-8-carboxamide], the IC50 is no more than 5 nM in the experiment on K562 cells, greater than 1000 nM in the experiment with Ba/F3 parental cells, no more than 5 nM on Ba/F3 BCR-ABL1 WT and greater than 1000 nM on Ba/F3 BCR-ABL1 T315I.
Consider `Cn1ccc2cnc(-n3cc4c(n3)-c3cc(-c5cc(C(=O)Nc6ccc(OC(F)(F)Cl)cc6)cnc5N5CC[C@@H](F)C5)cnc3C4)nc21` [T-38, (R)-N-(4-(chlorodifluoromethoxy)phenyl)-6-(3-fluoropyrrolidin-1-yl)-5-(2-(7-methyl-7H-pyrrolo[2,3-d]pyrimidin-2-yl)-2,4-dihydropyrazolo[3',4':3,4]cyclopenta[1,2-b]pyridin-7-yl)nicotinamide], for which the IC50 in the experiment with K562 cells is no more than 5 nM; in the experiment with Ba/F3 parental cells it was greater than 1000 nM; against Ba/F3 BCR-ABL1 WT it was no more than 5 nM; against Ba/F3 BCR-ABL1 T315I, no more than 5 nM.
For the compound `C[C@@H]1CN(C)Cc2nc3cc(C(=O)Nc4ccc(OC(F)(F)Cl)cc4)cc(-c4cnc5c(c4)-c4n[nH]cc4C5)c3n21` [T-40, (R)-N-(4-(chlorodifluoromethoxy)phenyl)-6-(2,4-dihydropyrazolo[3',4':3,4]cyclopenta[1,2-b]pyridin-7-yl)-2,4-dimethyl-1,2,3,4-tetrahydrobenzo[4,5]imidazo[1,2-a]pyrazine-8-carboxamide], the IC50 is no more than 5 nM with K562 cells, greater than 1000 nM in the experiment on Ba/F3 parental cells, no more than 5 nM on Ba/F3 BCR-ABL1 WT and greater than 1000 nM against Ba/F3 BCR-ABL1 T315I.
Take `O=C(Nc1ccc(OC(F)(F)Cl)cc1)c1cnc(N2CC[C@@H](F)C2)c(-c2cnc3c(c2)-c2nn(-c4ncc5ccsc5n4)cc2C3)c1` [T-44, (R)-N-(4-(chlorodifluoromethoxy)phenyl)-6-(3-fluoropyrrolidin-1-yl)-5-(2-(thieno[2,3-d]pyrimidin-2-yl)-2,4-dihydropyrazolo[3',4':3,4]cyclopenta[1,2-b]pyridin-7-yl)nicotinamide]: the IC50 was no more than 5 nM with K562 cells, greater than 1000 nM in the experiment with Ba/F3 parental cells, no more than 5 nM on Ba/F3 BCR-ABL1 WT and no more than 5 nM against Ba/F3 BCR-ABL1 T315I.
As to `CCC(=O)n1cc2c(n1)-c1cc(-c3cc(C(=O)Nc4ccc(OC(F)(F)Cl)cc4)cc4nc5n(c34)[C@H](C)COC5)cnc1C2` [T-45, (R)-N-(4-(chlorodifluoromethoxy)phenyl)-4-methyl-6-(2-propionyl-2,4-dihydropyrazolo[3',4':3,4]cyclopenta[1,2-b]pyridin-7-yl)-3,4-dihydro-1H-benzo[4,5]imidazo[2,1-c][1,4]oxazine-8-carboxamide], the IC50 in the experiment with K562 cells is no more than 5 nM; in the experiment on Ba/F3 parental cells, greater than 1000 nM; on Ba/F3 BCR-ABL1 WT, no more than 5 nM; against Ba/F3 BCR-ABL1 T315I, no more than 5 nM.
Regarding `CC(C)C(=O)n1cc2c(n1)-c1cc(-c3cc(C(=O)Nc4ccc(OC(F)(F)Cl)cc4)cc4nc5n(c34)[C@H](C)COC5)cnc1C2` [T-46, (R)-N-(4-(chlorodifluoromethoxy)phenyl)-6-(2-isobutyryl-2,4-dihydropyrazolo[3',4':3,4]cyclopenta[1,2-b]pyridin-7-yl)-4-methyl-3,4-dihydro-1H-benzo[4,5]imidazo[2,1-c][1,4]oxazine-8-carboxamide], the IC50 was no more than 5 nM in the experiment with K562 cells, greater than 1000 nM with Ba/F3 parental cells, no more than 5 nM against Ba/F3 BCR-ABL1 WT and no more than 5 nM on Ba/F3 BCR-ABL1 T315I.
Turning to `C[C@@H]1COCc2nc3cc(C(=O)Nc4ccc(OC(F)(F)Cl)cc4)cc(-c4cnc5c(c4)-c4nn(C(=O)C6CC6)cc4C5)c3n21` [T-47, (R)-N-(4-(chlorodifluoromethoxy)phenyl)-6-(2-(cyclopropylcarbonyl)-2,4-dihydropyrazolo[3',4':3,4]cyclopenta[1,2-b]pyridin-7-yl)-4-methyl-3,4-dihydro-1H-benzo[4,5]imidazo[2,1-c][1,4]oxazine-8-carboxamide], the IC50 is no more than 5 nM in the experiment on K562 cells, greater than 1000 nM in the experiment with Ba/F3 parental cells, no more than 5 nM against Ba/F3 BCR-ABL1 WT and no more than 5 nM against Ba/F3 BCR-ABL1 T315I.
In the case of `O=C(Nc1ccc(OC(F)(F)Cl)cc1)c1cnc(N2CC[C@@H](F)C2)c(-c2cnc3c(c2)-c2nn(-c4ncc(N5CC[C@@H](F)C5)cn4)cc2C3)c1` [T-50, N-(4-(chlorodifluoromethoxy)phenyl)-6-((R)-3-fluoropyrrolidin-1-yl)-5-(2-(5-((R)-3-fluoropyrrolidin-1-yl)pyrimidin-2-yl)-2,4-dihydropyrazolo[3',4':3,4]cyclopenta[1,2-b]pyridin-7-yl)nicotinamide], the IC50 with K562 cells is no more than 5 nM; in the experiment on Ba/F3 parental cells, greater than 1000 nM; against Ba/F3 BCR-ABL1 WT it was no more than 5 nM; at Ba/F3 BCR-ABL1 T315I, 5 to 50 nM.
As to `[2H]C([2H])([2H])n1cc2c(n1)-c1cc(-c3cc(C(=O)Nc4ccc(OC(F)(F)Cl)cc4)cc4nc5n(c34)[C@H](C)COC5)cnc1C2` [T-53, (R)-N-(4-(chlorodifluoromethoxv)phenyl)-4-methyl-6-(2-(methyl-d3)-2,4-dihydropyrazolo[3',4':3,4]cyclopenta[1,2-b]pyridin-7-yl)-3,4-dihydro-1H-benzo[4,5]imidazo[2,1-c][1,4]oxazine-8-carboxamide], the IC50 is no more than 5 nM with K562 cells, greater than 1000 nM in the experiment on Ba/F3 parental cells, no more than 5 nM on Ba/F3 BCR-ABL1 WT and no more than 5 nM against Ba/F3 BCR-ABL1 T315I.
As for `O=C(Nc1ccc(OC(F)(F)Cl)cc1)c1cnc(N2CC[C@@H](F)C2)c(-c2cnc3c(c2)-c2nn(-c4ncc(N5CC[C@H](F)C5)cn4)cc2C3)c1` [T-55, N-(4-(chlorodifluoromethoxy)phenyl)-6-((R)-3-fluoropyrrolidin-1-yl)-5-(2-(5-((S)-3-fluoropyrrolidin-1-yl)pyrimidin-2-yl)-2,4-dihydropyrazolo[3',4':3,4]cyclopenta[1,2-b]pyridin-7-yl)nicotinamide], the IC50 in the experiment with K562 cells is no more than 5 nM; with Ba/F3 parental cells, greater than 1000 nM; against Ba/F3 BCR-ABL1 WT it was no more than 5 nM; against Ba/F3 BCR-ABL1 T315I, 5 to 50 nM.
Regarding `C[C@@H]1COCc2nc3cc(C(=O)Nc4ccc(OC(F)(F)Cl)cc4)cc(-c4cnc5c(c4)-c4nn(CCOC(C)(C)C)cc4C5)c3n21` [T-56-A, (R)-6-(2-(2-(tert-butoxy)ethyl)-2,4-dihydropyrazolo[3',4':3,4]cyclopenta[1,2-b]pyridin-7-yl)-N-(4-(chlorodifluoromethoxy)phenyl)-4-methyl-3,4-dihydro-1H-benzo[4,5]imidazo[2,1-c][1,4]oxazine-8-carboxamide], the IC50 in the experiment with K562 cells is 5 to 50 nM; in the experiment with Ba/F3 parental cells, greater than 1000 nM; against Ba/F3 BCR-ABL1 WT, 50 to 1000 nM; against Ba/F3 BCR-ABL1 T315I it was greater than 1000 nM.
For `C[C@@H]1COCc2nc3cc(C(=O)Nc4ccc(OC(F)(F)Cl)cc4)cc(-c4cnc5c(c4)-c4c(cnn4CCOC(C)(C)C)C5)c3n21` [T-56-B, (R)-6-(1-(2-(tert-butoxy)ethyl)-1,4-dihydropyrazolo[3',4':3,4]cyclopenta[1,2-b]pyridin-7-yl)-N-(4-(chlorodifluoromethoxy)phenyl)-4-methyl-3,4-dihydro-1H-benzo[4,5]imidazo[2,1-c][1,4]oxazine-8-carboxamide], the IC50 is no more than 5 nM in the experiment with K562 cells, greater than 1000 nM with Ba/F3 parental cells, no more than 5 nM at Ba/F3 BCR-ABL1 WT and greater than 1000 nM at Ba/F3 BCR-ABL1 T315I.
